The source of these data is US9018214B2, “Bicyclic heterocycle compounds and their uses in therapy” (Astex Therapeutics Limited, priority 2011, dated 2015).

Molecules are shown by their SMILES. pEC50, pIC50: −log10 of the molar value. Structures can show the parent of a compound that is named as a salt. Where two headings read alike, the source gives them in different places.

The target in assay [1] is BIR3 domain of human XIAP (residues 252-350) (Homo sapiens (Human), UniProt P98170). In words: XIAP in vitro competitive displacement binding assay (fluorescence polarization). The settings on record: read-out: IC50 or PI Xiap: IC50. (In general: In fluorescence polarisation assays a small probe gives low polarisation when free and higher when bound to something large.)
For assay [2], the system named is EVSA-T (human breast carcinoma). Kind of assay: Anti-proliferative activity, Alamar Blue assay, EVSA-T. The format is cell-based. As to conditions: Homo sapiens, EVSA-T; for pEC50: 72 hours, Alamar Blue, read-out: EVSA-T prolif (EC50). For orientation: Alamar Blue is a resazurin reagent that responds to reducing activity.
The target in assay [3] is BIR3 domain of human cIAP-1 (residues 267-363) (Homo sapiens (Human), UniProt Q13490). In words: cIAP-1 in vitro competitive displacement binding assay (fluorescence polarization; Probe A AVPIK(5&6FAM)-amide or Probe B AbuRPFK(5&6FAM)-amide). As to conditions: for inhibition at 0.01 µM: 3 h, Probe B, read-out: IC50 or PI cIAP1: PI.
[4] abbreviates: Probe B AbuRPFK(5&6FAM)-amide, read-out: IC50 or PI cIAP1: IC50.

What is called pIC50 is the negative decadic logarithm of the IC50, by convention in mol/L. As a reminder, the pEC50 is the EC50 on a negative log10 scale, so that one unit is a factor of ten. `C[C@@H]1CN(CC(=O)N2CC(C)(C)c3cnc(Cc4ccccc4)cc32)[C@@H](C(=O)N2CCC2)CN1` [Example 100, 2-[(2R,5R)-2-[(Azetidin-1-yl)carbonyl]-5-methyl-piperazin-1-yl]-1-{6-benzyl-3,3-dimethyl-1H,2H,3H-pyrrolo[3,2-c]pyridin-1-yl}ethan-1-one, hydrochloride salt]: the pIC50 was 6.92 in assay [1] and 7.85 in assay [3] (setting [4]). Moreover, in assay [2], the negative logarithm of the EC50 (pEC50) was 6.35.
Take `C[C@@H]1CN(CC(=O)N2CC(C)(C)c3cnc(Cc4ccccc4)cc32)[C@@H](C(=O)N2CCOCC2)CN1` [Example 101, 1-{6-Benzyl-3,3-dimethyl-1H,2H,3H-pyrrolo[3,2-c]pyridin-1-yl}-2-[(2R,5R)-5-methyl-2-[(morpholin-4-yl)carbonyl]piperazin-1-yl]ethan-1-one, hydrochloride salt]: in assay [1], the pIC50 is 7.14. The pEC50 in assay [2] is 6.85. The inhibition at 0.01 µM in assay [3] was 62%.
Regarding `COC[C@H]1CN[C@H](C)CN1CC(=O)N1CC(C)(C)c2cnc(C#N)cc21` [Example 103, 1-{2-[(2R,5R)-2-(Methoxymethyl)-5-methylpiperazin-1-yl]acetyl}-3,3-dimethyl-1H,2H,3H-pyrrolo[3,2-c]pyridine-6-carbonitrile], the pIC50 in assay [1] was 6.38; in assay [3], more than 6.00; in assay [3] (read-out: IC50 or PI cIAP1: IC50), 6.06. Also, the inhibition at 10 µM in assay [2] (at 10 μM, read-out: EVSA-T prolif: % inhibition) stood at 12%.
Consider `COC[C@H]1CN[C@H](C)CN1CC(=O)N1CC(C)(C)c2cnc(Cc3ccc(F)cc3F)cc21` [Example 105, 1-{6-[(2,4-Difluorophenyl)methyl]-3,3-dimethyl-1H,2H,3H-pyrrolo[3,2-c]pyridin-1-yl}-2-[(2R,5R)-2-(methoxymethyl)-5-methylpiperazin-1-yl]ethan-1-one, hydrochloride salt], for which, in assay [1], the pIC50 is 6.72. In assay [2], the negative logarithm of the EC50 (pEC50) is 7.26. In addition, in assay [3], the inhibition at 0.01 µM is 74%.
Turning to `COC[C@H]1CN[C@H](C)CN1CC(=O)N1CC(C)(C)c2cnc(C3=CCCCC3)cc21` [Example 106, 1-[6-(Cyclohex-1-en-1-yl)-3,3-dimethyl-1H,2H,3H-pyrrolo[3,2-c]pyridin-1-yl]-2-[(2R,5R)-2-(methoxymethyl)-5-methylpiperazin-1-yl]ethan-1-one, hydrochloride salt], the pIC50 in assay [1] is 6.96; in assay [3] (setting [4]) it was 7.64. Also, in assay [2], the pEC50 was 6.36.
The like results for `C[C@@H]1CN(CC(=O)N2CC3(Cc4ccccc4C3)c3ccc(C#N)cc32)[C@@H](C(=O)N2CCOCC2)CN1` [Example 109, 1′-{2-[(2R,5R)-5-Methyl-2-[(morpholin-4-yl)carbonyl]piperazin-1-yl]acetyl}-1,1′,2′,3-tetrahydro-spiro[indene-2,3′-indole]-6′-carbonitrile, hydrochloride salt] were, in that order, 7.20, 6.82 and 5.32.
The like results for `COC[C@H]1CN[C@H](C)CN1CC(=O)N1CC(C)(C)c2cnc(Oc3ccccc3Cl)cc21` [Example 110, 1-[6-(2-Chloro-phenoxy)-3,3-dimethyl-2,3-dihydro-pyrrolo[3,2-c]pyridin-1-yl]-2-((2R,5R)-2-methoxymethyl-5-methyl-piperazin-1-yl)-ethanone, hydrochloride salt] were, in that order, 7.12, 7.46 and 6.22.
As to `C[C@@H]1CN(CC(=O)N2CC(C)(C)c3ccc(Cc4ccccc4)cc32)[C@@H](C(=O)N2CCOCC2)CN1` [Example 111, 1-(6-Benzyl-3,3-dimethyl-2,3-dihydro-indol-1-yl)-2-[(2R,5R)-5-methyl-2-(morpholine-4-carbonyl)-piperazin-1-yl]-ethanone, hydrochloride salt], the pIC50 in assay [1] was 7.13. Besides, the pEC50 in assay [2] is 7.15. Further, the inhibition at 0.01 µM in assay [3] is 63%.
